Assay results from article PMC11547513, “Design, Synthesis and Biological Activity Evaluation of β-Carboline Derivatives Containing Nitrogen Heterocycles” (Molecules, 2024).
Like-named read-outs stand apart in the source and are kept apart here.

Tests used:
[1] = tested on: T47D (human breast cancer cell); assay: MTT assay, in vitro cytotoxicity on T47D; details: read-out: Inhibitory Activity/% at 10 μM, T47D
Description: (§1) Cells were purchased from the Cell Bank of the Chinese Academy of Sciences (Kunming, China).

[2] = tested on: K562 (human chronic myeloid leukemia cell); assay: MTT assay, in vitro cytotoxicity on K562; details: Homo sapiens, K562, read-out: Inhibitory Activity/% at 10 μM, K562
Description: as §1

[3] = tested on: Hek-293T (human embryonic kidney cells); assay: MTT assay, in vitro cytotoxicity on normal Hek-293T; details: read-out: Inhibitory Activity/% at 10 μM, Hek-293T
Description: as §1

[4] = tested on: PC-3 (human prostate cancer cell); assay: MTT assay, in vitro cytotoxicity on PC-3; details: 10 μM, average of three replicates, "/" means no anticancer activity; for inhibition at 10 µM: Homo sapiens
Description: as §1

[5] = tested on: A549 (human lung cancer cell); assay: MTT assay, in vitro cytotoxicity on A549; details: A549, read-out: Inhibitory Activity/% at 10 μM, A549
Description: as §1

[6] = read-out: Inhibitory Activity/% at 10 μM, PC-3, Table 1 (7 series)
[7] = read-out: Inhibitory Activity/% at 10 μM, PC-3, Table 2 (8 series)

Row | Structure (SMILES) | inhibition at 10 µM [1] | melting point | inhibition at 10 µM [2] | inhibition at 10 µM [3] | inhibition at 10 µM [4, 6] | inhibition at 10 µM [5] | inhibition at 10 µM [4, 7] | Inhibitory Activity/% at 10 μM, PC-3 ([4]; Table 2 (8 series))
1 | O=C(CSc1nnc(-c2cc3c(cn2)[nH]c2ccccc23)o1)N1CCN(c2ccc(Br)cc2)CC1 [Compound 7b] | 42.6 ± 1.65% | 275.4 to 277.7 °C | 8.98 ± 3.13% | 33.3 ± 0.8% | 29.09 ± 0.27% | 13.6 ± 7.88% | – | –
2 | COc1cc(-c2nc(-c3nnc(SCC(=O)N4CCN(S(C)(=O)=O)CC4)o3)cc3c2[nH]c2ccccc23)cc(OC)c1OC [Compound 8m] | < 0% | – | 30.2 ± 2.16% | 21 ± 2.61% | – | 2.7 ± 1.78% | 46.58 ± 0.35% | –
3 | COc1cc(-c2nc(-c3nnc(SCC(=O)N4CCN(c5ccc(F)cc5)CC4)o3)cc3c2[nH]c2ccccc23)cc(OC)c1OC [Compound 8d] | < 0% | 156.8 to 158.1 °C | 8.62 ± 5.59% | 36.9 ± 2.63% | – | 10.1 ± 4.44% | 17.9 ± 2.8% | –
4 | COc1ccc(N2CCN(C(=O)CSc3nnc(-c4cc5c(cn4)[nH]c4ccccc45)o3)CC2)cc1 [Compound 7f] | 42.4 ± 4.23% | – | 21.5 ± 3.02% | 56.8 ± 2.21% | 11.5 ± 2.78% | 13.5 ± 6.97% | – | –
5 | COc1cc(-c2nc(-c3nnc(SCC(=O)N4CCN(c5ccc(Cl)cc5)CC4)o3)cc3c2[nH]c2ccccc23)cc(OC)c1OC [Compound 8e] | < 0% | – | 54.4 ± 2.32% | 23.4 ± 3.77% | – | 26.8 ± 2.6% | 26.9 ± 4.39% | –
6 | COc1cc(-c2nc(-c3nnc(SCC(=O)N4CCN(c5ccc(F)cc5F)CC4)o3)cc3c2[nH]c2ccccc23)cc(OC)c1OC [Compound 8h] | < 0% | 178.1 to 179.4 °C | 2.46 ± 1.78% | 29.6 ± 3.04% | – | 17.9 ± 2.91% | 12.2 ± 1.13% | –
7 | COc1cc(-c2nc(-c3nnc(SCC(=O)N4CCOc5ccccc54)o3)cc3c2[nH]c2ccccc23)cc(OC)c1OC [Compound 8n] | 25.6 ± 3.79% | 225.9 to 226.8 °C | 38.2 ± 3.73% | 35.5 ± 1.75% | – | 7.62 ± 3.84% | 32 ± 1.17% | –
8 | O=C(CSc1nnc(-c2cc3c(cn2)[nH]c2ccccc23)o1)Nc1ccc(CN2CCOCC2)cc1 [Compound 7q] | 46.4 ± 2.86% | – | 17 ± 1.86% | 32.3 ± 2.21% | 29.5 ± 1.38% | 8.67 ± 0.64% | – | –
9 | CS(=O)(=O)N1CCN(C(=O)CSc2nnc(-c3cc4c(cn3)[nH]c3ccccc34)o2)CC1 [Compound 7m] | 25.2 ± 4.1% | 174.3 to 175.6 °C | 33 ± 1.83% | 29.5 ± 3.33% | 20 ± 3.22% | 14.7 ± 3.64% | – | –
10 | O=C(CSc1nnc(-c2cc3c(cn2)[nH]c2ccccc23)o1)N1CCN(C(c2ccc(F)cc2)c2ccc(F)cc2)CC1 [Compound 7o] | 25 ± 1.43% | – | 1.26 ± 3.66% | 35.3 ± 3.81% | 5.36 ± 3.63% | < 0% | – | –
11 | O=C(CSc1nnc(-c2cc3c(cn2)[nH]c2ccccc23)o1)N1CCN(c2ccccc2)CC1 [Compound 7i] | 54.2 ± 3.88% | 148.9 to 150.6 °C | 23.6 ± 3.59% | 84.14 ± 0.79% | 35.6 ± 1.89% | 5.2 ± 7.21% | – | –
12 | O=C(CSc1nnc(-c2cc3c(cn2)[nH]c2ccccc23)o1)N1CCN(c2ccc(C(F)(F)F)cn2)CC1 [Compound 7r] | 38.4 ± 5.85% | 300.7 to 302.9 °C | 17.2 ± 2.35% | 0.74 ± 3.77% | 44 ± 2.62% | 3.03 ± 5.83% | – | –
13 | O=C(CSc1nnc(-c2cc3c(cn2)[nH]c2ccccc23)o1)N1CCN(c2ncccn2)CC1 [Compound 7g] | 42.5 ± 3.19% | 212.6 to 213.3 °C | 0.05 ± 2.99% | 34.1 ± 6.8% | 14.8 ± 2.23% | < 0% | – | –
14 | O=C(CSc1nnc(-c2cc3c(cn2)[nH]c2ccccc23)o1)N1CCN(c2ccc(O)cc2)CC1 [Compound 7c] | 40.2 ± 0.9% | 163.9 to 165.8 °C | 18.1 ± 2.63% | 47.3 ± 4.59% | 22.7 ± 2.19% | 16.8 ± 2.39% | – | –
15 | O=C(CSc1nnc(-c2cc3c(cn2)[nH]c2ccccc23)o1)N1CCOc2ccccc21 [Compound 7n] | 47.8 ± 0.82% | 232.4 to 232.8 °C | 35.1 ± 3.12% | 61.8 ± 1.57% | 36 ± 3.68% | 8.72 ± 2.57% | – | –
16 | O=C(CSc1nnc(-c2cc3c(cn2)[nH]c2ccccc23)o1)N1CCN(c2ccc(Cl)c(Cl)c2)CC1 [Compound 7a] | 32.3 ± 3.36% | 168.3 to 170.9 °C | 0.85 ± 1.01% | 18.6 ± 0.71% | 29.58 ± 0.25% | 0.72 ± 1.63% | – | –

Row | Structure (SMILES) | inhibition at 10 µM [1] | melting point | inhibition at 10 µM [2] | inhibition at 10 µM [3] | inhibition at 10 µM [4, 6] | inhibition at 10 µM [5] | inhibition at 10 µM [4, 7] | Inhibitory Activity/% at 10 μM, PC-3 ([4]; Table 2 (8 series))
17 | COc1cc(-c2nc(-c3nnc(SCC(=O)Nc4ccc(F)cc4)o3)cc3c2[nH]c2ccccc23)cc(OC)c1OC [Compound 8k] | 6.94 ± 3.38% | 235.8 to 237.4 °C | 33.5 ± 8.79% | 29.6 ± 2.33% | – | 33.2 ± 0.45% | > 40% | 44.72 ± 1.82%
18 | COc1cc(-c2nc(-c3nnc(SCC(=O)N4CCN(c5ccc(Cl)c(Cl)c5)CC4)o3)cc3c2[nH]c2ccccc23)cc(OC)c1OC [Compound 8a] | 7.49 ± 3.25% | – | 21 ± 1.65% | 29.4 ± 2.16% | – | 7.02 ± 4.02% | 7.73 ± 1.33% | –
19 | COc1cccc(N2CCN(C(=O)CSc3nnc(-c4cc5c(cn4)[nH]c4ccccc45)o3)CC2)c1 [Compound 7j] | 39.9 ± 3.5% | – | 13.6 ± 1.21% | 13.4 ± 0.68% | 14.7 ± 4.49% | 34 ± 0.87% | – | –
20 | COc1ccc(N2CCN(C(=O)CSc3nnc(-c4cc5c([nH]c6ccccc65)c(-c5cc(OC)c(OC)c(OC)c5)n4)o3)CC2)cc1 [Compound 8f] | 6.91 ± 5.13% | 156.5 to 158.6 °C | 7.87 ± 5.82% | 20.2 ± 4.34% | – | 13.2 ± 0.56% | 34.5 ± 0.68% | –
21 | O=C(CSc1nnc(-c2cc3c(cn2)[nH]c2ccccc23)o1)N1CCN(c2ccc(Cl)cc2)CC1 [Compound 7e] | 47.7 ± 3.36% | 246.4 to 248.3 °C | 12.7 ± 4.72% | 26.4 ± 1.35% | 25 ± 4.06% | 18 ± 2.06% | – | –
22 | O=C(CSc1nnc(-c2cc3c(cn2)[nH]c2ccccc23)o1)N1CCN(C2CCCCC2)CC1 [Compound 7p] | 50.7 ± 5.79% | 158.8 to 161.4 °C | 8.68 ± 6.83% | 61.5 ± 3.24% | 51.2 ± 3.11% | 17 ± 2.1% | – | –
23 | COc1cc(-c2nc(-c3nnc(SCC(=O)N4CCN(c5ccccc5)CC4)o3)cc3c2[nH]c2ccccc23)cc(OC)c1OC [Compound 8i] | 0.56 ± 3.38% | – | 25.5 ± 2.72% | 25.6 ± 3.44% | – | 18.4 ± 1.8% | 21.3 ± 4.8% | –
24 | O=C(CSc1nnc(-c2cc3c(cn2)[nH]c2ccccc23)o1)N1CCN(c2ccc(F)cc2)CC1 [Compound 7d] | 25.4 ± 4.82% | – | 17.8 ± 3.97% | 36.9 ± 1.74% | 26.5 ± 5.76% | 11.2 ± 0.69% | – | –
25 | COc1cc(-c2nc(-c3nnc(SCC(=O)N4CCN(C5CCCCC5)CC4)o3)cc3c2[nH]c2ccccc23)cc(OC)c1OC [Compound 8p] | 54.2 ± 4.87% | – | 44.6 ± 4.1% | 28.9 ± 3.22% | – | 8.84 ± 0.36% | 19.1 ± 2.79% | –
26 | O=c1[nH]cc(F)c(=O)[nH]1 [5-Fluorouracil, reference compound] | – | – | – | – | – | 40.6 ± 2.04% | – | –
27 | COc1cccc(N2CCN(C(=O)CSc3nnc(-c4cc5c([nH]c6ccccc65)c(-c5cc(OC)c(OC)c(OC)c5)n4)o3)CC2)c1 [Compound 8j] | < 0% | – | 25 ± 3.95% | 20.4 ± 1.51% | – | 0.13 ± 4.62% | 15.7 ± 3.93% | –
28 | O=C(CSc1nnc(-c2cc3c(cn2)[nH]c2ccccc23)o1)N1CCOCC1 [Compound 7l] | 19.3 ± 5.03% | 228.3 to 229.6 °C | 9.28 ± 2.51% | 11.2 ± 7.91% | 39.6 ± 5.06% | 12.2 ± 6.14% | – | –
29 | O=C(CSc1nnc(-c2cc3c(cn2)[nH]c2ccccc23)o1)N1CCN(c2ccc(F)cc2F)CC1 [Compound 7h] | 46.4 ± 2.12% | – | 8.23 ± 4.12% | 47.5 ± 0.78% | 10.7 ± 2.68% | 2.16 ± 3.56% | – | –
30 | COc1cc(-c2nc(-c3nnc(SCC(=O)N4CCN(c5ccc(Br)cc5)CC4)o3)cc3c2[nH]c2ccccc23)cc(OC)c1OC [Compound 8b] | 10.6 ± 1.16% | 155.8 to 157.9 °C | 10.8 ± 2.32% | 38.4 ± 3.85% | – | 5.03 ± 5.42% | 8.91 ± 5.34% | –
31 | O=C(CSc1nnc(-c2cc3c(cn2)[nH]c2ccccc23)o1)Nc1ccc(F)cc1 [Compound 7k] | 47.5 ± 1.39% | 296.4 to 297.9 °C | 12.2 ± 0.18% | 30.8 ± 2.59% | 35.8 ± 4.09% | 10.1 ± 6.19% | – | –
